± gives the standard deviation of the averaged measurements.
Legend:
[1] = compound: CCn1c(C(=O)N(C2CC2)C2CC2)cc2c3c(ncn3C)c(Nc3cc(C)n(C)n3)nc21; assay: area under dose-response curve of surviving fraction (unscaled, Aref=0) (surviving fraction x log10(nM)); higher = more resistant; conditions: exposure time: 5 days; dose range 0.5-1000 nM
Summary of the method: (§1)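 Surviving fractions were fitted by 3-parameter logistic regression in the drc R package to give dose-response survival curves. They came from tumour cell lines treated for five days with eight inhibitor concentrations from 0.5 to 1000 nM and read by CellTiter-Glo luminescence against DMSO-only wells. The area under the curve is the unscaled activity area. It was calculated over log10 dose with Aref = 0.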

[2] = compound: C[C@]12CC[C@H](O)CC1=CC[C@@H]1[C@@H]2CC[C@]2(C)C(c3cccnc3)=CC[C@@H]12 [ABIRATERONE]; assay: as above; conditions: exposure time: 5 days; dose range 0.5-1000 nM
Summary of the method: as §1

[3] = compound: T1, CN1CCN(c2nc(C3=C(c4c[nH]c5ccccc45)C(=O)NC3=O)c3ccccc3n2)CC1 [SOTRASTAURIN/AEB071]; assay: as above; conditions: exposure time: 5 days; dose range 0.5-1000 nM
Summary of the method: as §1

[4] = compound: CNCc1ccc(-c2[nH]c3cc(F)cc4c3c2CCNC4=O)cc1; assay: as above; conditions: exposure time: 5 days; dose range 0.5-1000 nM
Summary of the method: as §1

[5] = compound: T1, SOTRASTAURIN/AEB071; assay: surviving fraction relative to DMSO-only wells; higher = less growth inhibition; conditions: exposure time: 5 days
Summary of the method: (§2)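 After seeding at 250–500 cells per well in 384-well plates and a 24-hour wait, log-phase tumour cell lines were exposed without interruption for five days to inhibitors at 0.5, 1, 5, 10, 50, 100, 500 and 1000 nM. CellTiter-Glo luminescence was recorded after 10 minutes at room temperature. Viability is reported as surviving fraction, the luminescence normalised to the median of DMSO-only wells.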

[6] = compound: Cc1nc(Nc2ncc(C(=O)Nc3c(C)cccc3Cl)s2)cc(N2CCN(CCO)CC2)n1 [DASATINIB]; assay: as above; conditions: exposure time: 5 days
Summary of the method: as §2

| Test System | area under dose-response curve [1] | area under dose-response curve [2] | area under dose-response curve [3] | area under dose-response curve [4] | surviving fraction ([5]; 0.5 nM) | surviving fraction ([5]; 1 nM) | surviving fraction ([5]; 5 nM) | surviving fraction ([5]; 10 nM) | surviving fraction ([5]; 50 nM) | surviving fraction ([5]; 100 nM) | surviving fraction ([5]; 500 nM) | surviving fraction ([5]; 1000 nM) | surviving fraction ([6]; 0.5 nM) | surviving fraction ([6]; 1 nM) | surviving fraction ([6]; 5 nM) | surviving fraction ([6]; 10 nM) | surviving fraction ([6]; 50 nM) | surviving fraction ([6]; 100 nM) | surviving fraction ([6]; 500 nM) | surviving fraction ([6]; 1000 nM) |
| --- | --- | --- | --- | --- | --- | --- | --- | --- | --- | --- | --- | --- | --- | --- | --- | --- | --- | --- | --- | --- |
| 22RV1 PROSTATE | 3.4 | 3.62 | 3.61 | 3.57 | 1.08 ± 0.014 | 1.11 ± 0.026 | 0.985 ± 0.013 | 1.05 ± 0.054 | 1.24 ± 0.26 | 1.2 ± 0.17 | 1.06 ± 0.099 | 1.03 ± 0.051 | 1.15 ± 0.32 | 0.983 ± 0.09 | 1.1 ± 0.3 | 0.935 ± 0.097 | 1.01 ± 0.15 | 0.929 ± 0.056 | 1.04 ± 0.085 | 1.09 ± 0.16 |
| 93VU HEADNECK | 3.21 | 3.9 | 3.06 | 3.13 | 1.03 ± 0.011 | 1.01 ± 0.036 | 1.07 ± 0.1 | 0.9817 ± 0.005 | 0.919 ± 0.067 | 0.887 ± 0.039 | 0.757 ± 0.055 | 0.789 ± 0.048 | 0.779 ± 0.041 | 0.788 ± 0.054 | 0.829 ± 0.036 | 0.752 ± 0.053 | 0.276 ± 0.02 | 0.132 ± 0.016 | 0.0923 ± 0.0015 | 0.0923 ± 0.013 |
| ASKA SYNOVIAL | 3.49 | 3.92 | 3.57 | 2.86 | 1.14 ± 0.086 | 1.1 ± 0.074 | 1.18 ± 0.057 | 1.2 ± 0.097 | 1.03 ± 0.073 | 1.02 ± 0.028 | 0.998 ± 0.068 | 0.995 ± 0.077 | 0.928 ± 0.024 | 0.904 ± 0.051 | 0.974 ± 0.061 | 0.936 ± 0.046 | 0.985 ± 0.085 | 0.94 ± 0.032 | 0.919 ± 0.019 | 0.905 ± 0.036 |
| BT20 BREAST | 3.56 | 3.73 | 3.14 | 3.01 | 1.12 ± 0.043 | 1.14 ± 0.11 | 1.19 ± 0.052 | 1.15 ± 0.024 | 0.836 ± 0.013 | 0.893 ± 0.15 | 0.912 ± 0.029 | 0.972 ± 0.055 | 0.767 ± 0.056 | 0.729 ± 0.02 | 0.699 ± 0.026 | 0.739 ± 0.11 | 0.774 ± 0.13 | 0.798 ± 0.061 | 0.752 ± 0.034 | 0.705 ± 0.036 |
| CAL51 BREAST | 3.3 | 3.32 | 3.16 | 2.78 | 0.993 ± 0.025 | 0.969 ± 0.071 | 0.933 ± 0.031 | 0.962 ± 0.05 | 0.968 ± 0.077 | 1.04 ± 0.04 | 0.938 ± 0.077 | 0.824 ± 0.05 | 0.838 ± 0.069 | 0.8707 ± 0.0049 | 0.832 ± 0.047 | 0.737 ± 0.046 | 0.491 ± 0.036 | 0.386 ± 0.025 | 0.248 ± 0.019 | 0.238 ± 0.033 |
| CAL72 BONE | 3.63 | 3.67 | 3.55 | 3.26 | 1.1 ± 0.021 | 1.09 ± 0.029 | 1.05 ± 0.029 | 1.08 ± 0.014 | 1.05 ± 0.04 | 1.08 ± 0.072 | 1.06 ± 0.044 | 1.1 ± 0.015 | 1.01 ± 0.048 | 1.01 ± 0.041 | 0.862 ± 0.16 | 0.618 ± 0.25 | 0.269 ± 0.12 | 0.233 ± 0.12 | 0.226 ± 0.12 | 0.221 ± 0.12 |
| CAL120 BREAST | 3.06 | 3.35 | 3.28 | 3.19 | 1.03 ± 0.042 | 1.01 ± 0.054 | 1.01 ± 0.03 | 1.02 ± 0.035 | 0.985 ± 0.051 | 0.955 ± 0.035 | 0.976 ± 0.046 | 0.981 ± 0.009 | 0.877 ± 0.098 | 0.882 ± 0.025 | 0.861 ± 0.013 | 0.786 ± 0.062 | 0.497 ± 0.022 | 0.358 ± 0.021 | 0.217 ± 0.0088 | 0.192 ± 0.015 |
| CHLA90 AUTONOMIC GANGLIA | 3.14 | 3.47 | 3.28 | 3.28 | 0.975 ± 0.024 | 0.962 ± 0.046 | 1.02 ± 0.074 | 0.943 ± 0.081 | 1.05 ± 0.12 | 1 ± 0.083 | 1.06 ± 0.097 | 0.978 ± 0.17 | 0.801 ± 0.031 | 0.804 ± 0.059 | 0.737 ± 0.054 | 0.712 ± 0.025 | 0.735 ± 0.11 | 0.656 ± 0.091 | 0.711 ± 0.044 | 0.728 ± 0.026 |
| CME SYNOVIAL | 4.04 | 4.4 | 4.01 | 2.5 | 1.28 ± 0.26 | 1.3 ± 0.18 | 1.31 ± 0.13 | 1.38 ± 0.22 | 0.978 ± 0.13 | 1.21 ± 0.2 | 1.14 ± 0.059 | 1.12 ± 0.059 | 0.831 ± 0.15 | 0.827 ± 0.1 | 0.752 ± 0.088 | 0.713 ± 0.1 | 0.598 ± 0.028 | 0.464 ± 0.042 | 0.411 ± 0.075 | 0.383 ± 0.036 |
| COLO320DM LARGE INTESTINE | 3.77 | 3.36 | 3.45 | 3.27 | 1.09 ± 0.06 | 1.05 ± 0.14 | 1 ± 0.046 | 1.08 ± 0.12 | 1.01 ± 0.084 | 1.07 ± 0.047 | 0.994 ± 0.056 | 1.05 ± 0.059 | 1.12 ± 0.096 | 1.01 ± 0.051 | 1.08 ± 0.074 | 1.1 ± 0.034 | 1.03 ± 0.028 | 1.02 ± 0.056 | 1.09 ± 0.045 | 1.09 ± 0.089 |
| H23 LUNG | 3.2 | 3.65 | 3.58 | 3.63 | 1.03 ± 0.015 | 1.09 ± 0.046 | 1.07 ± 0.045 | 1.03 ± 0.016 | 1.1 ± 0.076 | 1.11 ± 0.092 | 1.14 ± 0.037 | 1.116 ± 0.011 | 0.924 ± 0.025 | 0.902 ± 0.065 | 0.823 ± 0.064 | 0.783 ± 0.052 | 0.597 ± 0.051 | 0.511 ± 0.067 | 0.288 ± 0.0063 | 0.256 ± 0.013 |
| S68 BREAST | – | 3.31 | 3.45 | 2.67 | 1.01 ± 0.3 | 1.06 ± 0.074 | 1.04 ± 0.15 | 1.53 ± 0.22 | 0.832 ± 0.079 | 0.909 ± 0.13 | 0.891 ± 0.12 | 1.08 ± 0.26 | 0.625 ± 0.11 | 0.51 ± 0.096 | 0.561 ± 0.11 | 0.419 ± 0.12 | 0.409 ± 0.029 | 0.418 ± 0.041 | 0.277 ± 0.053 | 0.298 ± 0.079 |
| SCC003 HEADNECK | – | 3.79 | 3.42 | 3.45 | 1.06 ± 0.027 | 1.01 ± 0.12 | 1.1 ± 0.026 | 1.04 ± 0.061 | 1.08 ± 0.13 | 0.949 ± 0.081 | 0.998 ± 0.14 | 1.04 ± 0.099 | 0.877 ± 0.036 | 0.843 ± 0.068 | 0.899 ± 0.13 | 0.813 ± 0.076 | 0.827 ± 0.025 | 0.654 ± 0.046 | 0.263 ± 0.014 | 0.149 ± 0.023 |
| SUM159 BREAST | – | 3.35 | 3.57 | 3.53 | 1.1 ± 0.02 | 1.12 ± 0.028 | 1.11 ± 0.016 | 1.08 ± 0.026 | 1.06 ± 0.021 | 1.09 ± 0.015 | 1.07 ± 0.028 | 1.04 ± 0.021 | 0.948 ± 0.026 | 0.981 ± 0.011 | 0.955 ± 0.015 | 0.921 ± 0.022 | 0.907 ± 0.011 | 0.778 ± 0.048 | 0.59 ± 0.035 | 0.606 ± 0.055 |

— the supplement of paper PMC6045584
